# Test results published in patent US8614207B2, “Inhibitors of hepatitis C virus” (Presidio Pharmaceuticals, Inc., priority 2010, dated 2013).
# Test system: HCV1b replication (bicistronic genotype 1b replicon in Huh 7 cells)
# Test: HCV replicon assay, 1b_Huh-Luc/Neo-ET cell line, luciferase readout
# Format: cell-based, HCV genotype 1b
# Conditions: Hepatitis C virus, Group 1 / Group 2, read-out: EC50, concentration effective to produce a half-maximal inhibition of HCV1b replication
# Experimental: Biological activity of the compounds of the invention was determined using an HCV replicon assay. The 1b_Huh-Luc/Neo-ET cell line persistently expressing a bicistronic genotype 1b replicon in Huh 7 cells was obtained from ReBLikon GMBH. This cell line was used to test compound inhibition using luciferase enzyme activity readout as a measurement of compound inhibition of replicon levels.
# On Day 1 (the day after plating), each compound is added in triplicate to the cells. Plates incubated for 72 […] prior to running the luciferase assay. Enzyme activity was measured using a Bright-Glo Kit (cat. number E2620) manufactured by Promega Corporation. The following equation was used to generate a percent control value for each compound. % Control=(Average Compound Value/Average Control)*100
# The EC50 value was determined using GraphPad Prism and the following equation: Y=Bottom+(Top−Bottom)/(1+10^((Log IC50−X)*HillSlope))
# EC50 values of compounds are repeated several times in the replicon assay.
row,Structure (SMILES),EC50 [nM]
1,CNC(=O)c1c(-c2ccc(F)cc2)oc2cc3c(cc12)C(C)OCCN3S(C)(=O)=O (centres unmarked) [Compound B22],10 to 100
2,CNC(=O)c1c(-c2ccc(F)cc2)oc2cc3c(cc12)[C@H](C)OCCN3S(C)(=O)=O [Compound B45],≤ 10
3,CNC(=O)c1c(-c2ccc(Oc3ccc(F)cc3)cc2)oc2cc3c(cc12)C(C)OC(CS(C)(=O)=O)CN3S(C)(=O)=O (centres unmarked) [Compound B192],≤ 10
4,CNC(=O)c1c(-c2ccc(F)cc2)oc2cc3c(cc12)[C@@H](C)O[C@H](CS(C)(=O)=O)CN3S(C)(=O)=O [Compound B215],10 to 100
5,CNC(=O)c1c(-c2ccc(Oc3ccc(F)cc3)cc2)oc2cc3c(cc12)[C@@H](C)O[C@H](CS(C)(=O)=O)CN3S(C)(=O)=O [Compound B216],10 to 100
